Consider seven compounds from PubChem BioAssay (NCI).

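Following 48 hours of exposure in 96-well plates, responses at five concentrations were used to interpolate endpoints linearly. TGI: total growth inhibition.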

Common to all, as to test: growth of human tumour cells (NCI), 48 h
In assay [1] the test system is HOP-62 NSCLC.
Assay [2] concerns CCRF-CEM leukemia.
In assay [3] the test system is CAKI-1 renal.
For assay [4], the system named is MOLT-4 leukemia.
The subject of assay [5] is NCI-H23 lung.
For assay [6], the system named is A498 renal.
The test system of assay [7] is OVCAR-4 ovarian.
Assay [8] deals with IGROV1 ovarian.
The test system of assay [9] is MCF7 breast.
Assay [10] deals with T-47D breast.
Assay [11] relates to UO-31 renal.
The subject of assay [12] is SK-MEL-28 melanoma.
For assay [13], the system named is SK-OV-3 ovarian.
In assay [14] the test system is SF-295 CNS.
For assay [15], the system named is LOX IMVI melanoma.
Assay [16] deals with ACHN renal.
Assay [17] relates to UACC-257 melanoma.
The test system of assay [18] is U251 CNS.
Assay [19] relates to SW-620 colon.
Assay [20] has as its system HCT-15 colon.

As for `CCc1cc2c(cc1C(=O)CCC(=O)O)CC1(C2)Cc2cc(CC)c(C(=O)CCC(=O)O)cc2C1`, the TGI in assay [1], in assay [2], in [3], in assay [4], in assay [5] and in assay [6] was over 100 µM each time. Besides, the TGI in [7], in [8], in assay [9], in assay [10], in assay [11] and in [12] was over 100 µM each time. In addition, the TGI in [13], in assay [14], in [15], in [16], in [17] and in assay [18] was over 100 µM throughout. The TGI in [19] and in assay [20] was over 100 µM in each case.
On to `COc1ccc2c(c1)c1ccc3c(c1n2C)C(=O)C=CC3=O`, for which the TGI was found to be 66.5 µM in assay [1]; 2.47 µM in assay [2]; 18.6 µM in [3]; 4.5 µM in [4]; 32.2 µM in assay [5]; 53.5 µM in [6]. The TGI in assay [7] was found to be 15.6 µM; in [8], 28.3 µM; in assay [9], 15.5 µM; in assay [10] it was 6.25 µM; in [11], 24.5 µM; in assay [12], 22.5 µM. The TGI in [13] is 41.3 µM; in assay [14], 56.9 µM; in assay [15], 14.9 µM; in assay [16] it was 14.9 µM; in assay [17], 24.9 µM; in assay [18], 36 µM. For the same compound, the TGI in assay [19] came out at 10.7 µM; in assay [20], 10.9 µM.
`CC(=O)OCCCCn1nncc1Cn1ccc(=O)n(Cc2cnnn2CCCCOC(C)=O)c1=O`: the TGI in [1] is over 100 µM; in [2], 2.61 µM; in assay [3], over 100 µM; in assay [4], over 100 µM; in assay [5], over 100 µM; in assay [6] it was over 100 µM. Moreover, the TGI in assay [7], in assay [8], in assay [9], in assay [10], in assay [11] and in assay [12] was over 100 µM in each case. The TGI in assay [13], in assay [14], in assay [15], in [16], in assay [17] and in [18] was over 100 µM in each case. The TGI in assay [19] and in assay [20] was over 100 µM each time.
As to `COc1ccc2[nH]c3c(c2c1)CCc1c(OC)cccc1-3`, the TGI in assay [1], in assay [2], in assay [3], in assay [4], in [5] and in [6] was over 100 µM each time. In addition, the TGI in [7], in [8], in [9], in [10], in [11] and in [12] was over 100 µM throughout. In addition, the TGI in assay [13], in assay [14], in [15], in assay [16], in assay [17] and in assay [18] was over 100 µM each time. Further, the TGI in assay [19] and in [20] was over 100 µM in each case.
Regarding `Cn1c2ccccc2c2c3c(c4c5ccccc5n(C)c4c21)C(=O)N(Cc1ccccc1)C3=O`, the TGI in assay [1], in [2], in assay [3], in assay [4], in assay [5] and in assay [6] was over 100 µM each time. For the same compound, the TGI in [7], in assay [8], in [9], in assay [10], in assay [11] and in [12] was over 100 µM in each case. For the same compound, the TGI in assay [13], in assay [14], in assay [15], in [16], in [17] and in assay [18] was over 100 µM in each case. For the same compound, the TGI in assay [19] and in [20] was over 100 µM in each case.
With `CC12CP(=O)(O)CC1C2(Cl)Cl` (stereo not given), the TGI in assay [1], in assay [2], in assay [3], in assay [4], in [5] and in [6] was over 100 µM throughout. Also, the TGI in [7], in [8], in [9], in assay [10], in [11] and in assay [12] was over 100 µM in each case. In addition, the TGI in [13], in [14], in [15], in [16], in assay [17] and in [18] was over 100 µM in each case. Also, the TGI in assay [19] and in [20] was over 100 µM each time.
Consider `CCOC(=O)c1ccc(NCc2ccc3nc(OC)c(OC)nc3c2)cc1`, for which the TGI in assay [1], in assay [2], in [3], in assay [4], in [5] and in assay [6] was over 100 µM each time. In addition, the TGI in [7], in assay [8], in [9], in assay [10], in assay [11] and in assay [12] was over 100 µM each time. Moreover, the TGI in assay [13], in assay [14], in assay [15], in assay [16], in assay [17] and in [18] was over 100 µM each time. Moreover, the TGI in assay [19] and in assay [20] was over 100 µM each time.
